Measured values taken from patent US11147272B2, “Pyridone compounds and agricultural and horticultural fungicides comprising the same as active ingredients” (MITSUI CHEMICALS AGRO, INC., priority 2017, dated 2021).

How the values were obtained:
Plasmopara viticola = assay: Test Example G: Downy mildew on vine; settings: for Test G control value: 7 to 10 days after inoculation; for Test G control value class: Downy mildew on vine (Neomuscat), 2.5 ml/pot, assessed 7 to 10 days after inoculation
[1] = system: Blumeria graminis f. sp. hordei; assay: Test Example D: Powdery mildew on barley; settings: for Test D control value class: class of control value
[2] = system: Colletotrichum orbiculare; assay: Test Example H: Anthracnose on cucumber; settings: for Test H control value: 6 to 10 days after inoculation; for Test H control value class: Anthracnose on cucumber (Sagami Hanjiro), 2.5 ml/pot, assessed 6 to 10 days after inoculation
Alternaia brassicicola = assay: Test Example C: Alternaria sooty spot on cabbage; assay type: in vivo
Text: Seeds of a test plant (cabbage variety: Shikidori) were planted and cultivated until the cotyledons extended.
<Control Value> Control value=100{1−(n/3)}

Magnaporthe grisea = assay: whole plant or invertebrate; assay type: in vivo; settings: for Test A control value class: class of control value
Phytophthora infestans = assay: whole plant or invertebrate; assay type: in vivo; settings: for Test F control value class: class of control value
Puccinia recondita = assay: Test Example E: Brown rust on wheat; assay type: in vivo
Botrytis cinerea = assay: Test Example B: Gray mold on tomato; settings: for Test B control value class: class of control value
[3] = 250 ppm drug solution sprayed (2.5 ml/pot), grape Neomuscat
[4] = 250 ppm drug solution sprayed on test plant
[5] = 250 ppm drug solution sprayed (2.5 ml/pot), cucumber Sagami Hanjiro
[6] = Downy mildew on vine, 250 ppm spray
[7] = Powdery mildew on barley, control value class
[8] = Anthracnose on cucumber, 250 ppm spray
[9] = Alternaria sooty spot on cabbage, control value class
[10] = Blast on rice, control value class
[11] = Late blight on tomato, control value class
[12] = Brown rust on wheat, control value class
[13] = Gray mold on tomato, control value class
[14] = Alternaria sooty spot on cabbage, class of control value
[15] = Brown rust on wheat, class of control value

CCCc1cc(I)c(=O)n(CCC)c1-c1c(F)cc(F)cc1F [compound 441]
L (50% or less control value): Test G control value (Plasmopara viticola; [3]) | Test D control value [1, 4] | Test C control value (Alternaia brassicicola; [4]) | Test A control value (Magnaporthe grisea; [4]) | Test F control value (Phytophthora infestans; [4]) | Test E control value (Puccinia recondita; [4]) | Test B control value (Botrytis cinerea; [4])
H (more than 50% control value): Test H control value [2, 5]

CCn1c(-c2ccc(O)cc2)c(CC(C)C)ccc1=O [compound 193]
L (50% or less control value): Test G control value (Plasmopara viticola; [6]) | Test D control value [1, 7] | Test H control value [2, 8] | Test A control value (Magnaporthe grisea; [10]) | Test F control value (Phytophthora infestans; [11]) | Test E control value (Puccinia recondita; [12]) | Test B control value (Botrytis cinerea; [13])
H (more than 50% control value): Test C control value (Alternaia brassicicola; [9])

CCn1c(-c2c(F)cc(F)cc2F)c(CN(C)OC)cc(Cl)c1=O [Compound No. 89, 3-chloro-1-ethyl-5-((methoxy(methyl)amino)methyl)-6-(2,4,6-trifluorophenyl)pyridin-2(1H)-one]
> 50%: pest or weed control at 250 µg/mL ([1]; Blumeria graminis, in Hordeum vulgare, topical, read-out: Test D control value class) | pest or weed control at 250 ppm ([2]; Colletotrichum orbiculare, in Cucumis sativus, topical, read-out: Test H control value class) | pest or weed control at 250 µg/mL (Alternaia brassicicola; Brassica oleracea, topical, Alternaria sooty spot on cabbage, class of control value, read-out: Test C control value class) | pest or weed control at 250 µg/mL (Magnaporthe grisea; Pyricularia oryzae, in Oryza sativa, read-out: Test A control value class) | pest or weed control at 250 µg/mL (Puccinia recondita; Puccinia recondita, topical, Brown rust on wheat, class of control value, read-out: Test E control value class) | pest or weed control at 250 µg/mL (Botrytis cinerea; Botrytis cinerea, in Solanum lycopersicum, topical, read-out: Test B control value class)
< 50%: pest or weed control at 250 ppm (Plasmopara viticola; Plasmopara viticola, topical, read-out: Test G control value class) | pest or weed control at 250 µg/mL (Phytophthora infestans; Phytophthora infestans, in Solanum lycopersicum, topical, read-out: Test F control value class)

CCOC(C)(c1cc(Cl)c(=O)n(CC)c1-c1ccc(C#N)cc1)C(C)C (stereo not drawn) [compound 251]
H (more than 50% control value): Test C control value (Alternaia brassicicola; [9])
L (50% or less control value): Test G control value (Plasmopara viticola; [6]) | Test D control value [1, 7] | Test H control value [2, 8] | Test A control value (Magnaporthe grisea; [10]) | Test F control value (Phytophthora infestans; [11]) | Test E control value (Puccinia recondita; [12]) | Test B control value (Botrytis cinerea; [13])

CCn1c(-c2c(F)cccc2F)c(C(C)C)ccc1=O [compound 5]
H (more than 50% control value): Test D control value class ([1]; Powdery mildew on barley) | Test H control value class ([2]; 250 ppm spray) | Test C control value class (Alternaia brassicicola; [14]) | Test A control value class (Magnaporthe grisea; Blast on rice) | Test E control value class (Puccinia recondita; [15]) | Test B control value class (Botrytis cinerea; Gray mold on tomato)
L (50% or less control value): Test G control value class (Plasmopara viticola; 250 ppm spray) | Test F control value class (Phytophthora infestans; Late blight on tomato)

CCn1c(-c2c(F)cc(F)cc2F)c(C(C)(O)CC)ccc1=O (stereo not drawn) [compound 481]
L (50% or less control value): Test G control value (Plasmopara viticola; [3]) | Test C control value (Alternaia brassicicola; [4]) | Test A control value (Magnaporthe grisea; [4]) | Test F control value (Phytophthora infestans; [4])
H (more than 50% control value): Test D control value [1, 4] | Test H control value [2, 5] | Test E control value (Puccinia recondita; [4]) | Test B control value (Botrytis cinerea; [4])

CCn1c(-c2ccc(OC)cc2F)c(CC(C)C)ccc1=O [compound 111]
L (50% or less control value): Test F control value class (Phytophthora infestans; Late blight on tomato)
H (more than 50% control value): Test G control value class (Plasmopara viticola; 250 ppm spray) | Test D control value class ([1]; Powdery mildew on barley) | Test H control value class ([2]; 250 ppm spray) | Test C control value class (Alternaia brassicicola; [14]) | Test A control value class (Magnaporthe grisea; Blast on rice) | Test E control value class (Puccinia recondita; [15]) | Test B control value class (Botrytis cinerea; Gray mold on tomato)

CCn1c(-c2ccc(Br)cc2Cl)c(CC(C)C)cc(Cl)c1=O [compound 236]
L (50% or less control value): Test G control value (Plasmopara viticola; [6]) | Test H control value [2, 8] | Test F control value (Phytophthora infestans; [11])
H (more than 50% control value): Test D control value [1, 7] | Test C control value (Alternaia brassicicola; [9]) | Test A control value (Magnaporthe grisea; [10]) | Test E control value (Puccinia recondita; [12]) | Test B control value (Botrytis cinerea; [13])

CCn1c(-c2ccc(Cl)cc2F)c(CC(C)C)cc(Cl)c1=O [compound 158]
H (more than 50% control value): Test G control value class (Plasmopara viticola; 250 ppm spray) | Test D control value class ([1]; Powdery mildew on barley) | Test H control value class ([2]; 250 ppm spray) | Test C control value class (Alternaia brassicicola; [14]) | Test A control value class (Magnaporthe grisea; Blast on rice) | Test E control value class (Puccinia recondita; [15]) | Test B control value class (Botrytis cinerea; Gray mold on tomato)
L (50% or less control value): Test F control value class (Phytophthora infestans; Late blight on tomato)

CCn1c(-c2c(F)cc(F)cc2F)c(CC(C)C)ccc1=O [compound 37]
L (50% or less control value): Test G control value class (Plasmopara viticola; 250 ppm spray) | Test D control value class ([1]; Powdery mildew on barley) | Test H control value class ([2]; 250 ppm spray) | Test C control value class (Alternaia brassicicola; [14]) | Test F control value class (Phytophthora infestans; Late blight on tomato) | Test E control value class (Puccinia recondita; [15]) | Test B control value class (Botrytis cinerea; Gray mold on tomato)
H (more than 50% control value): Test A control value class (Magnaporthe grisea; Blast on rice)

CCn1c(-c2c(F)cc(OC)cc2F)c(C(C)(C)C)cc(Br)c1=O [compound 76]
L (50% or less control value): Test G control value class (Plasmopara viticola; 250 ppm spray) | Test D control value class ([1]; Powdery mildew on barley) | Test F control value class (Phytophthora infestans; Late blight on tomato)
H (more than 50% control value): Test H control value class ([2]; 250 ppm spray) | Test C control value class (Alternaia brassicicola; [14]) | Test A control value class (Magnaporthe grisea; Blast on rice) | Test E control value class (Puccinia recondita; [15]) | Test B control value class (Botrytis cinerea; Gray mold on tomato)

CCn1c(-c2c(F)cccc2F)c(COC)cc(Cl)c1=O [compound 45]
H (more than 50% control value): Test D control value class ([1]; Powdery mildew on barley) | Test C control value class (Alternaia brassicicola; [14]) | Test A control value class (Magnaporthe grisea; Blast on rice) | Test E control value class (Puccinia recondita; [15]) | Test B control value class (Botrytis cinerea; Gray mold on tomato)
L (50% or less control value): Test G control value class (Plasmopara viticola; 250 ppm spray) | Test H control value class ([2]; 250 ppm spray) | Test F control value class (Phytophthora infestans; Late blight on tomato)

CCCCc1ccc(=O)n(CC)c1-c1ccc(F)cc1Cl [compound 205]
H (more than 50% control value): Test G control value (Plasmopara viticola; [6]) | Test D control value [1, 7] | Test C control value (Alternaia brassicicola; [9]) | Test A control value (Magnaporthe grisea; [10]) | Test E control value (Puccinia recondita; [12]) | Test B control value (Botrytis cinerea; [13])
L (50% or less control value): Test H control value [2, 8] | Test F control value (Phytophthora infestans; [11])

CCCc1cc(Cl)c(=O)n(CC)c1-c1c(F)cc(OC)cc1F [compound 384]
H (more than 50% control value): Test G control value (Plasmopara viticola; [3]) | Test D control value [1, 4] | Test H control value [2, 5] | Test C control value (Alternaia brassicicola; [4]) | Test A control value (Magnaporthe grisea; [4]) | Test E control value (Puccinia recondita; [4]) | Test B control value (Botrytis cinerea; [4])
L (50% or less control value): Test F control value (Phytophthora infestans; [4])

CCn1c(-c2c(F)cc(F)cc2F)c(C(C)(C)C)cc(Cl)c1=O [compound 69]
L (50% or less control value): Test G control value class (Plasmopara viticola; 250 ppm spray) | Test D control value class ([1]; Powdery mildew on barley) | Test H control value class ([2]; 250 ppm spray) | Test F control value class (Phytophthora infestans; Late blight on tomato)
H (more than 50% control value): Test C control value class (Alternaia brassicicola; [14]) | Test A control value class (Magnaporthe grisea; Blast on rice) | Test E control value class (Puccinia recondita; [15]) | Test B control value class (Botrytis cinerea; Gray mold on tomato)
